Results published in article PMC7320009 (Scientific Reports, 2020).

Columns and labels:
BPSS2242 [1] = molecular target: T1, BPSS2242 (Burkholderia pseudomallei, UniProt Q63I27)
BPSS2242 [2] = molecular target: T1, BPSS2242; remark: listed apart in the source

T1 sequence (Q63I27 1-271 limits assumed): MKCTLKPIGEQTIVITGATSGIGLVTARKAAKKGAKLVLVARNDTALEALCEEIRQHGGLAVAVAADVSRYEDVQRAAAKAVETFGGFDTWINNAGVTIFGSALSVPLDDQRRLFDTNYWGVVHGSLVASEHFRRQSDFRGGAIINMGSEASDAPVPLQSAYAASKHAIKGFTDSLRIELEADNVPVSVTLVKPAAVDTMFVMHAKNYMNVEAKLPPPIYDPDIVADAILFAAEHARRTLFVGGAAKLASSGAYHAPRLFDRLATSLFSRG

SMILES	Tm (BPSS2242 [1]) [°C]	NADPH oxidation at 340 nm (BPSS2242 [2])
NC(=O)C1=CN([C@@H]2O[C@H](COP(=O)(O)OP(=O)(O)OC[C@H]3O[C@@H](n4cnc5c(N)ncnc54)[C@H](OP(=O)(O)O)[C@@H]3O)[C@@H](O)[C@H]2O)C=CC1 [NADPH]	55.23	–
CC(=O)C=O [methylglyoxal]	–	BPSS2242 exhibited reductase activity toward diacetyl and methylglyoxal when NADPH was used
